The results in this text go back to patent publication US20250051321A1, “TRICYCLIC DERIVATIVE AND PREPARATION METHOD THEREFOR AND APPLICATION THEREOF” (SHANGHAI JEMINCARE PHARMACEUTICAL CO., LTD., priority 2021, published 2025).

For test [1], the system named is plasma LPA 18:1 and LPA 18:2. As to the kind of experiment: Human plasma ex vivo assay (LPA 18:1 / 18:2 by LC-MS/MS). The following applies: 37° C., 2 hours. Type of test: biochemical. Summed up: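 Human plasma incubated 2 h at 37° C with compound (8 points, 1:3 dilution, top 10 μM, 0.1% DMSO), then quenched with 0.1% FA containing LPA 17:0 internal standard.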
For test [2], the target named is ATX (Homo sapiens (Human), UniProt Q13822). Briefly: ATX enzyme inhibition assay (Amplex UltraRed/choline oxidase/HRP, 16:0 Lyso PC substrate). It is filed as biochemical. As for the experimental part: All compounds were prepared as a 10 mM DMSO stock solution.
Solutions at pH 8.5 and pH 7.5 were prepared respectively with the following formulations:
All compounds, including the positive control compound, were diluted 5-fold from 10 mM to 2 mM with DMSO in the first step. The mixture was then diluted to 100 μM with 1× assay buffer.
3. Separate Detection of Compounds with 1× Assay Buffer at Two pH Values:
a) 5 μL of 10× compound diluent was added to a 384-well plate (Greiner 781209) using a motorized pipette (see the “experimental preparation” step). 5 μL of 1× assay buffer containing 5% DMSO was added to both negative and positive control wells. The plate was centrifuged at 300 rpm for 1 minute at room temperature.
b) 2× ATX ([…]) was prepared with 1× assay buffer, and 25 μL of 2× ATX was added to the plate using a motorized pipette. 25 μL of 1× assay buffer was added to the negative control wells and 25 μL of 2× ATX was added to the positive control wells. The plate was centrifuged at 300 rpm for 1 minute at room temperature.
The plate was incubated at room temperature for 10 minutes.
c) 2.5× working solution containing Amplex UltraRed reagent (125 μM), HRP (2.5 U/mL), choline oxidase (1.25 U/mL), and 16:0 Lyso PC (75 μM) was prepared with 1× assay buffer. 20 μL of 2.5× working solution was added to all reaction wells using a motorized pipette. The plate was centrifuged at 300 rpm for 1 minute at room temperature.
d) The plate was detected by SpectraMax with the following procedures: fluorescence mode; excitation at 550 nm; emission at 590 nm; kinetics; read once every 2 minutes; read continuously for 60 minutes.
The calculation formula of % inhibition (i.e., % inhibition rate) was as follows: […]
V0: X-axis is taken as 0 to 30 minutes, Y-axis is taken as fluorescence readings, and the slope corresponding to the straight line fitted by the software GraphPad Prism 8 is the initial response rate.
V0max: Average V0 of the positive control wells in the plate.
V0min: Average V0 of the negative control wells in the plate.
The IC50 of the compounds was calculated from a nonlinear regression line (dose-initial response rate) fitted by % inhibition and log value of compound concentration using the software GrahPad Prism 8.

Where [3] appears, read: LPA 18:1, read-out: Human plasma ex vivo assay IC50 (18:1 LPA).
Setting [4] is: LPA 18:2, read-out: Human plasma ex vivo assay IC50 (18:2 LPA).
Setting [5] is: assay buffer pH 8.5, read-out: IC50 (nM) pH 8.5.
[6] abbreviates: assay buffer pH 7.5, read-out: IC50 (nM) pH 7.5.

Each structure is given as a SMILES string. Where two headings read alike, the source gives them in different places.

For the compound `CN(c1nc(-c2ccc(F)cc2)c(C#N)s1)c1c2c(nc3c(F)cc(N4CC5(CN(C(=O)[C@@H]6CCOC6)C5)C4)cc13)[C@@H](O)CC2` (single isomer, unassigned) [Example E13-a], the results for the IC50 in test [1] (setting [3]), in test [1] (setting [4]) and in test [2] (setting [5]) were 385 nM, 385 nM and 19.8 nM, respectively.

Turning to `CN(c1nc(-c2ccc(F)cc2)c(C#N)s1)c1c2c(nc3c(F)cc(N4CC5(CN(C(=O)C6(O)CCOCC6)C5)C4)cc13)[C@@H](O)CC2` (single isomer, unassigned) [Example E15-a], the IC50 in test [1] (setting [3]) came out at 392 nM; in test [1] (setting [4]) it was 388 nM; in test [2] (setting [5]) it was 14.9 nM.

On to `CN(c1nc(-c2ccc(F)cc2)c(C#N)s1)c1c2c(nc3c(F)cc(N4CC5(CN(C(=O)[C@]6(O)CCOC6)C5)C4)cc13)[C@H](O)CC2` (single isomer, unassigned) [Example E19-1a], for which the IC50 in test [1] (setting [3]) was found to be 207 nM; in test [1] (setting [4]) it was 362 nM; in test [2] (setting [5]), 22.9 nM.

For the compound `CN(c1nc(-c2ccc(F)cc2)c(C#N)s1)c1c2c(nc3c(F)cc(N4CC5(CN(C(=O)[C@]6(O)CCOC6)C5)C4)cc13)[C@@H](O)CC2` (single isomer, unassigned) [Example E19-1b], the figures for the IC50 in test [1] (setting [3]), in test [1] (setting [4]) and in test [2] (setting [5]) were 218 nM, 479 nM and 27.2 nM, respectively.

Consider `CN(c1nc(-c2ccc(F)cc2)c(C#N)s1)c1c2c(nc3c(F)cc(N4CC5(CN(C(=O)[C@@]6(O)CCOC6)C5)C4)cc13)[C@@H](O)CC2` (single isomer, unassigned) [Example E19-2a], for which the IC50 in test [1] (setting [3]) is 207 nM; in test [1] (setting [4]), 203 nM; in test [2] (setting [5]), 26.7 nM.

Turning to `CN(c1nc(-c2ccc(F)cc2)c(C#N)s1)c1c2c(nc3c(F)cc(N4CC5(CN(C(=O)[C@@]6(O)CCOC6)C5)C4)cc13)[C@@H](O)CC2` (single isomer, unassigned) [Example E19-2b], the IC50 was determined as 113 nM in test [1] (setting [3]), 310 nM in test [1] (setting [4]) and 334 nM in test [2] (setting [5]).

For the compound `CN(c1nc(-c2ccc(F)cc2)c(C#N)s1)c1c2c(nc3ccc(N4CCN(CC(=O)N5CC(O)C5)CC4)cc13)CCC2` [Example A1], the IC50 in test [1] (setting [3]) turned out to be 183 nM; in test [1] (setting [4]), 196 nM; in test [2] (setting [6]), 138 nM; in test [2] (setting [5]), 27.7 nM.

As to `CN(c1nc(-c2ccc(F)cc2)c(C#N)s1)c1c2c(nc3ccc(N4CCN(CC(=O)N5CC(O)C5)CC4)cc13)COC2` [Example A2], the IC50 in test [1] (setting [3]) was found to be 85 nM; in test [1] (setting [4]), 73.5 nM; in test [2] (setting [6]) it was 624 nM; in test [2] (setting [5]), 96.7 nM.

Turning to `CN(c1nc(-c2ccc(F)cc2)c(C#N)s1)c1c2c(nc3ccc(N4CCN(CC(=O)N5CC(O)C5)CC4)cc13)CCO2` [Example A3], the IC50 was 109 nM in test [1] (setting [3]), 103 nM in test [1] (setting [4]), 214 nM in test [2] (setting [6]) and 27.8 nM in test [2] (setting [5]).

As to `CN(c1nc(-c2ccc(F)cc2)c(C#N)s1)c1c2c(nc3c(F)cc(N4CCN(CC(=O)N5CC(O)C5)CC4)cc13)CCC2` [Example A4], the half-inhibitory concentration (IC50) in test [1] (setting [3]) is 160 nM; in test [1] (setting [4]) it was 176 nM; in test [2] (setting [6]) it was 174 nM; in test [2] (setting [5]), 52.1 nM.

`CN(c1nc(-c2ccc(F)cc2)c(C#N)s1)c1c2c(nc3c(F)cc(N4CCN(CC(=O)N5CC(CO)C5)CC4)cc13)CCC2` [Example A5]: the IC50 in test [1] (setting [3]) was determined as 200 nM; in test [1] (setting [4]) it was 239 nM; in test [2] (setting [6]), 112 nM; in test [2] (setting [5]), 32.8 nM.

In the case of `CN(c1nc(-c2ccc(F)cc2)c(C#N)s1)c1c2c(nc3c(F)cc(N4CCC5(CC4)CN(CC(=O)N4CC(O)C4)C5)cc13)CCC2` [Example A6], the IC50 in test [1] (setting [3]) was found to be 182 nM; in test [1] (setting [4]), 184 nM; in test [2] (setting [6]) it was 318 nM; in test [2] (setting [5]), 44.7 nM.

On to `CN(c1nc(-c2ccc(F)cc2)c(C#N)s1)c1c2c(nc3ccc(N4CCN(CC(=O)N5CC(O)C5)CC4)cc13)CC2` [Example A7], for which the IC50 turned out to be 74.2 nM in test [1] (setting [3]), 72.7 nM in test [1] (setting [4]), 85.1 nM in test [2] (setting [6]) and 22.2 nM in test [2] (setting [5]).

A word on the IC50: it is the concentration needed to halve the response being measured.
